Test results reported in ChEMBL document CHEMBL5291721, “A preclinical secondary pharmacology resource illuminates target-adverse drug reaction associations of marketed drugs” (Nat Commun, 2023).

Tests used:
[1] = target: T1, Corticotropin-releasing factor receptor 1 (Homo sapiens, UniProt P34998)
T1 sequence (P34998 whole entry): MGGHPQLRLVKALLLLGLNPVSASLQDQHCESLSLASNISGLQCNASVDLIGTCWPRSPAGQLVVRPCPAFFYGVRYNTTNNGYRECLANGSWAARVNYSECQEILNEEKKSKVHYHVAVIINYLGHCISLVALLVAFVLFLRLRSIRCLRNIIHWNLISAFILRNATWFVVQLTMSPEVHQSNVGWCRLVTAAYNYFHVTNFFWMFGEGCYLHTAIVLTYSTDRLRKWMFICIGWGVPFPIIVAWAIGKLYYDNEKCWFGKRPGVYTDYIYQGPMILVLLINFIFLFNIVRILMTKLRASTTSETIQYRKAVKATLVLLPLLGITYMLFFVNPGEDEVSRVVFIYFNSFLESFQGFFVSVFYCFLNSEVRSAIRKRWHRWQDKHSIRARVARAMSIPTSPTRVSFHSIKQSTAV

[2] = target: Neurotensin receptor type 1 (Homo sapiens, UniProt P30989)
Chain of Neurotensin receptor type 1 (P30989 whole entry): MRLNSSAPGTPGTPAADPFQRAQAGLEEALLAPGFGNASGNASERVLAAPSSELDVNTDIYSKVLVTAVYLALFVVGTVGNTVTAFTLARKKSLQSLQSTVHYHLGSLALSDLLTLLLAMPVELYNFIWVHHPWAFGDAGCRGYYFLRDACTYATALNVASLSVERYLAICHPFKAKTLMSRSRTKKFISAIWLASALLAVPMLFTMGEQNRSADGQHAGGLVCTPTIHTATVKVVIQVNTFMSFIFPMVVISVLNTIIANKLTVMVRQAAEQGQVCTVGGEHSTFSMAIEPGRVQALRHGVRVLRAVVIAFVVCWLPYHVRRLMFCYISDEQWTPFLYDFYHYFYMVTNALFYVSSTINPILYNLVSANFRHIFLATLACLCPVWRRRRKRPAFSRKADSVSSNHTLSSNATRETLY

[3] = target: T2, Gastric inhibitory polypeptide receptor (Homo sapiens, UniProt P48546)
T2 sequence (P48546 whole entry): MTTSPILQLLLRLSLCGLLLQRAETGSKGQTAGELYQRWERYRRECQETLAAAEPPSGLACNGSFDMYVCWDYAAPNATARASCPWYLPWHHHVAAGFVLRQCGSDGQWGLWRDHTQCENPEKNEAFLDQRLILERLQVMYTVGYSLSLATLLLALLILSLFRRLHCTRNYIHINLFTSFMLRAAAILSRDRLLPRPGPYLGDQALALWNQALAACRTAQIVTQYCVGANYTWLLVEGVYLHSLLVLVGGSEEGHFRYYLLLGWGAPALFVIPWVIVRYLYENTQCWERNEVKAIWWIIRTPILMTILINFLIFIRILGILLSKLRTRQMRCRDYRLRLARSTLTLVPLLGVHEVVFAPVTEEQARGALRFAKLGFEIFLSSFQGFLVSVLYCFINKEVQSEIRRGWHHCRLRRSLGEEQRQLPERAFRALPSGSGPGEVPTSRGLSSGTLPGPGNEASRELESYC

[4] = target: Glucagon receptor (Homo sapiens, UniProt P47871)
Chain of Glucagon receptor (P47871 whole entry): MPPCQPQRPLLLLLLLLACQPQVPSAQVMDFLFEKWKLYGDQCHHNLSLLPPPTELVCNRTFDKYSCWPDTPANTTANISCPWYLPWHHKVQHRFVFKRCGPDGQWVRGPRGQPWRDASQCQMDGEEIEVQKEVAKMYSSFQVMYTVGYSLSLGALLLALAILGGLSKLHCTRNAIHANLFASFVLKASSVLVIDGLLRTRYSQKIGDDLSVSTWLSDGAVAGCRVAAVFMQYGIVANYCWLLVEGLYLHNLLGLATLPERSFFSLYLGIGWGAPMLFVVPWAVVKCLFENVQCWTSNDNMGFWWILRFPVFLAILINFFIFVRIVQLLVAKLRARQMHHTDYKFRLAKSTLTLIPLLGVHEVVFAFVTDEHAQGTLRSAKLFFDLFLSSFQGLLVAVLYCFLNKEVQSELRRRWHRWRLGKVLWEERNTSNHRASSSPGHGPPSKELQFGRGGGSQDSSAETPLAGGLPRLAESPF

[5] = target: Beta-3 adrenergic receptor (Homo sapiens, UniProt P13945)
Chain of Beta-3 adrenergic receptor (P13945 whole entry): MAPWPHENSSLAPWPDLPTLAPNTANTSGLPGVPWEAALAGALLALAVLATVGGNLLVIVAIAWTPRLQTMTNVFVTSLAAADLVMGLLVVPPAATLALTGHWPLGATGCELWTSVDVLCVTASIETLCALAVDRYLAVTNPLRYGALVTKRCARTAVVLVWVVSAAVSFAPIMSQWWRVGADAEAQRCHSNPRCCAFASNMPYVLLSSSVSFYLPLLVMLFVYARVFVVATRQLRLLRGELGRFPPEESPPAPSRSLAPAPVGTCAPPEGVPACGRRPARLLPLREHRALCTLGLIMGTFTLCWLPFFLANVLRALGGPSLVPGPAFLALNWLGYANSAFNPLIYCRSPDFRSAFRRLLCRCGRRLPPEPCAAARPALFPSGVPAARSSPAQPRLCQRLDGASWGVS

[6] = target: T3, Alpha-2A adrenergic receptor (Homo sapiens, UniProt P08913)
T3 sequence (P08913 whole entry): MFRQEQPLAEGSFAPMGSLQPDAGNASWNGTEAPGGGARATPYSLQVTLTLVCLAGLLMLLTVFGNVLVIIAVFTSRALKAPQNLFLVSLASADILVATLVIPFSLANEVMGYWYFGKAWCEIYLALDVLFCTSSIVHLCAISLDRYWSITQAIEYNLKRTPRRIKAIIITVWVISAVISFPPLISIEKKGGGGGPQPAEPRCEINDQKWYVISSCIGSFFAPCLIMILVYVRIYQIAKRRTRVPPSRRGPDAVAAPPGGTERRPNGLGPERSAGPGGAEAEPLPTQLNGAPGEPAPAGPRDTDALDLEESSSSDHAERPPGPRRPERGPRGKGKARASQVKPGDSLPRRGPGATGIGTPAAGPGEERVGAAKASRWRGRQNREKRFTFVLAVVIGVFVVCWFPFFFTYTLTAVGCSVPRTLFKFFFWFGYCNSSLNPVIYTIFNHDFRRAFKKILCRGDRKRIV

[7] = target: Voltage-dependent N-type calcium channel subunit alpha-1B (Rattus norvegicus, UniProt Q02294); format: functional
Chain of Voltage-dependent N-type calcium channel subunit alpha-1B (Q02294 whole entry): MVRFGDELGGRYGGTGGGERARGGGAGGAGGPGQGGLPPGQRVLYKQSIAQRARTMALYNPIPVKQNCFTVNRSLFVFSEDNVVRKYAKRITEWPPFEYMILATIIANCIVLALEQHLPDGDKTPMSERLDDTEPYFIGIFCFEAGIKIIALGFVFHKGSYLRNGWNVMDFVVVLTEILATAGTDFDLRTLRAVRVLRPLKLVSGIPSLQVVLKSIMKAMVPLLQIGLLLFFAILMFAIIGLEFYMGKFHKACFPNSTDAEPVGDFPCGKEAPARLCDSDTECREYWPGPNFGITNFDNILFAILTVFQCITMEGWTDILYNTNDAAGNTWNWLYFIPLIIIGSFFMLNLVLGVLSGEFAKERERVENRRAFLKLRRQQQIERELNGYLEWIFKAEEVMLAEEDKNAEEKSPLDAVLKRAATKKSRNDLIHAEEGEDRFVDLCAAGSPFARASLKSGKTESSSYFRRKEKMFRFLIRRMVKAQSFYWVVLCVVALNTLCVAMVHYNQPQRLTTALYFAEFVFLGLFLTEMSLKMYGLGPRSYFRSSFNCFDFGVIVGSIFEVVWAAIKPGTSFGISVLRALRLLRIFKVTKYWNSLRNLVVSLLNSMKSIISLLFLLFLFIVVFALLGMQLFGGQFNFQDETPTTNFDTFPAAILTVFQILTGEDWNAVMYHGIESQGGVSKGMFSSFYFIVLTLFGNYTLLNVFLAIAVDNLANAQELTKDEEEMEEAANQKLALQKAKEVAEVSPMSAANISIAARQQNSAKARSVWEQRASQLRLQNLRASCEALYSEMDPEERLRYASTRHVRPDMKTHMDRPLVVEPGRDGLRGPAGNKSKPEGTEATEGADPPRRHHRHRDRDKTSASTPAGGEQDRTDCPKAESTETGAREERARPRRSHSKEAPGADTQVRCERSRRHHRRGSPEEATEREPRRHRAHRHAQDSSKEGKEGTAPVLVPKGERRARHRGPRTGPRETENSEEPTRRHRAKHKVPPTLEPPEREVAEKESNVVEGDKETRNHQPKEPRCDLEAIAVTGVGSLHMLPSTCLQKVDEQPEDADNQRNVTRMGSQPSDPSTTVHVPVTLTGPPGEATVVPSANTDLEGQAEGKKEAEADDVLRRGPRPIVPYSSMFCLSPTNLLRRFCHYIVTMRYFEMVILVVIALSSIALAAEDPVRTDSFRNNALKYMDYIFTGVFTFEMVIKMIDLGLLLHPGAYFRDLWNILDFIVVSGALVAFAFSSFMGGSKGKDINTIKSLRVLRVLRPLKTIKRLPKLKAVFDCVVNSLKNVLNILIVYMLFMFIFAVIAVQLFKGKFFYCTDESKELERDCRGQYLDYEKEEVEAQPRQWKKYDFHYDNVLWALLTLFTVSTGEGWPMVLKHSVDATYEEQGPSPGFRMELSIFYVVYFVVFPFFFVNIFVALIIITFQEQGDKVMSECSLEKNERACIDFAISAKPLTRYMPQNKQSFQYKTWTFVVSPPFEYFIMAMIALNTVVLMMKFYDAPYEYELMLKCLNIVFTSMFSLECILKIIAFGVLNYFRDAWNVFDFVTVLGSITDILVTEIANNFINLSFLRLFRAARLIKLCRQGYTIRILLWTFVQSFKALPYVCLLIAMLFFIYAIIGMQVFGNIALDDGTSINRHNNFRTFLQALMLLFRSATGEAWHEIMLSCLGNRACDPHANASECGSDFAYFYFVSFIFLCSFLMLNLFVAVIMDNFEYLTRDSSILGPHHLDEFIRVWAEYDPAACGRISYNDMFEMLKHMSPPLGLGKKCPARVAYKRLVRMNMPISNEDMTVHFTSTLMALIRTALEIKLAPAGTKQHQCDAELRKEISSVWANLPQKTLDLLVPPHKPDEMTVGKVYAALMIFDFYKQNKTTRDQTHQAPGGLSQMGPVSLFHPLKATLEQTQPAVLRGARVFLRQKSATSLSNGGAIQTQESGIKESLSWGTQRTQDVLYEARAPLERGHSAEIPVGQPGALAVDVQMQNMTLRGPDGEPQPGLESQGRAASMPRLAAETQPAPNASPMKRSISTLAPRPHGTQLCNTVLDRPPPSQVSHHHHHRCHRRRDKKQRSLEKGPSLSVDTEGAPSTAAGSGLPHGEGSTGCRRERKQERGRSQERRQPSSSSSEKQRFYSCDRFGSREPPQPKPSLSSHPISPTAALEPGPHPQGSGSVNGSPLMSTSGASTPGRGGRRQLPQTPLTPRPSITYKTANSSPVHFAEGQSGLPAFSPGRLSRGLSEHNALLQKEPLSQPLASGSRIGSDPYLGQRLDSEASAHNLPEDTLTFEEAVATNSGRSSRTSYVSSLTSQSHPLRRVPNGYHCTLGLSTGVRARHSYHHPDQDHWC

[8] = target: 5-hydroxytryptamine receptor 2B (Homo sapiens, UniProt P41595)
Chain of 5-hydroxytryptamine receptor 2B (P41595 whole entry): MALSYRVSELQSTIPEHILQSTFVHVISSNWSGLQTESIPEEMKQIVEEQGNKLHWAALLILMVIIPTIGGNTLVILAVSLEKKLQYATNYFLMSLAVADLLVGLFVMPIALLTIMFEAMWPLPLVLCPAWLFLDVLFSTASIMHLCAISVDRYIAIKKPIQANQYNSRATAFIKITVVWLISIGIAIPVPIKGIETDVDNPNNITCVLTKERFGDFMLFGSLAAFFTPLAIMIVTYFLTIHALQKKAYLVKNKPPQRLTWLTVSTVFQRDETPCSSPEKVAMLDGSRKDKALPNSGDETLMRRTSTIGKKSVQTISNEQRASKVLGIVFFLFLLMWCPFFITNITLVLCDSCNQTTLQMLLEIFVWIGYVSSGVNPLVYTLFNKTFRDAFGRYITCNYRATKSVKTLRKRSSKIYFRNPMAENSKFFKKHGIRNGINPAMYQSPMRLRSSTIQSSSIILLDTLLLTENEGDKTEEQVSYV

[9] = target: T4, Androgen receptor (Rattus norvegicus, UniProt P15207)
T4 sequence (P15207 whole entry): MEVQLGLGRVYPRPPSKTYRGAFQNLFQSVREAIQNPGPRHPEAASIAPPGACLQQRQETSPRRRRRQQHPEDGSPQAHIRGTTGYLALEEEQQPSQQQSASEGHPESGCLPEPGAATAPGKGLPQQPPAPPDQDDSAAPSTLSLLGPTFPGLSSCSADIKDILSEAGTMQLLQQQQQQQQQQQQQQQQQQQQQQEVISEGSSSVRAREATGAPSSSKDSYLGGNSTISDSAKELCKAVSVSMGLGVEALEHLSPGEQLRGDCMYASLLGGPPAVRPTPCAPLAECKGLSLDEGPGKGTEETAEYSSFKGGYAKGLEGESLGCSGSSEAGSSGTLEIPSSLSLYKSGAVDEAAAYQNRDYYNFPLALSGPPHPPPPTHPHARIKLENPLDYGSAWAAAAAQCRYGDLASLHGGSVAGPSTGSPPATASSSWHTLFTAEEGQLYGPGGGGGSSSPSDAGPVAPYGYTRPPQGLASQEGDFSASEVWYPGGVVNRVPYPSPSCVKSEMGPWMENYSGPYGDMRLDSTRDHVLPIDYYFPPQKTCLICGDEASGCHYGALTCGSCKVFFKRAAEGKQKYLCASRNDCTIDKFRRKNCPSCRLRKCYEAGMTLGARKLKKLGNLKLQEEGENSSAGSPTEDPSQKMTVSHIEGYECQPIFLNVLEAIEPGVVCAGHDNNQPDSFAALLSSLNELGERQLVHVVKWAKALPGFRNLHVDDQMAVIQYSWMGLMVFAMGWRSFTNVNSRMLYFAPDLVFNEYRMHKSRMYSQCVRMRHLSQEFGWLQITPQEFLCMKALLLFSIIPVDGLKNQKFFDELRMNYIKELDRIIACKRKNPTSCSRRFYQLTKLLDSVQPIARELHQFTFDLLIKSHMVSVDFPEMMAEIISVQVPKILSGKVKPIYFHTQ

[10] = target: Gamma-aminobutyric acid receptor subunit alpha-1/alpha-2/beta-2/gamma-2 (Homo sapiens, UniProt P14867+P18507+P47869+P47870); format: functional, cell-based
Note: assay procedure not described here.

CCOC(=O)C1=C(C)NC(C)=C(C(=O)OC)C1c1cccc(Cl)c1Cl (stereo not drawn) [FELODIPINE]
AC50 [1]: > 30 µM | AC50 [2]: > 30 µM | AC50 [3]: > 30 µM | AC50 [4]: > 30 µM | AC50 [5]: 10.4 µM | AC50 [6]: > 10 µM | AC50 [7]: > 10 µM | AC50 [8]: > 10 µM

TEPRENONE
AC50 [9]: > 30 µM

COc1ccc2c3c1O[C@H]1C(=O)CC[C@H]4[C@@H](C2)N(C)CC[C@]314 [HYDROCODONE]
AC50 [1]: > 30 µM | AC50 [2]: > 30 µM | AC50 [3]: > 30 µM | AC50 [4]: > 30 µM | AC50 [5]: > 30 µM | AC50 [6]: > 10 µM | AC50 [7]: > 10 µM | AC50 [8]: > 10 µM

C[C@@H](Cc1ccccc1)N(C)Cc1ccccc1 [BENZPHETAMINE]
AC50 [9]: > 10 µM

OCC(CO)N[C@H]1C[C@](O)(CO)[C@@H](O)[C@H](O)[C@H]1O [VOGLIBOSE]
AC50 [9]: > 30 µM

CCOC(=O)O[C@]1(C(=O)COC(=O)CC)CC[C@H]2[C@@H]3CCC4=CC(=O)C=C[C@]4(C)[C@H]3[C@@H](O)C[C@@]21C [PREDNICARBATE]
AC50 [9]: 0.71 µM

CCN1C(=O)NC(c2ccccc2)C1=O (stereo not drawn) [ETHOTOIN]
AC50 [10]: > 30 µM

CC1=C(C(=O)O)N2C(=O)[C@@H](NC(=O)[C@H](N)C3=CCC=CC3)[C@H]2SC1 [CEPHRADINE]
AC50 [10]: > 30 µM

CN1C2CCCC1CC(NC(=O)c1nn(C)c3ccccc13)C2 (stereo not drawn) [GRANISETRON]
AC50 [1]: > 30 µM | AC50 [2]: > 30 µM | AC50 [3]: > 30 µM | AC50 [4]: > 30 µM | AC50 [5]: > 30 µM | AC50 [6]: > 10 µM | AC50 [7]: > 10 µM

COc1ccc(C(Cl)=C(c2ccc(OC)cc2)c2ccc(OC)cc2)cc1 [CHLOROTRIANISENE]
AC50 [10]: > 30 µM

Nc1cc(N2CCCCC2)nc(N)[n+]1[O-] [MINOXIDIL]
AC50 [9]: > 30 µM

CC(NC(C)(C)C)C(=O)c1cccc(Cl)c1 (stereo not drawn) [BUPROPION]
AC50 [1]: > 30 µM | AC50 [2]: > 30 µM | AC50 [3]: > 30 µM | AC50 [4]: > 30 µM | AC50 [5]: > 30 µM | AC50 [6]: > 10 µM | AC50 [7]: > 10 µM | AC50 [8]: > 10 µM

CC(C(=O)O)c1ccc(C(=O)c2ccccc2)s1 (stereo not drawn) [TIAPROFENIC ACID]
AC50 [9]: > 10 µM

CCC(=O)[C@@]1(C)[C@H](C)C[C@H]2[C@@H]3CCC4=CC(=O)C=C[C@]4(C)[C@H]3[C@@H](O)C[C@@]21C [RIMEXOLONE]
AC50 [9]: > 30 µM

CC1=C(CC(=O)O)c2cc(F)ccc2/C1=C\c1ccc([S+](C)[O-])cc1 (stereo not drawn)
AC50 [1]: > 30 µM | AC50 [2]: > 30 µM | AC50 [3]: > 30 µM | AC50 [4]: > 30 µM | AC50 [5]: > 30 µM | AC50 [6]: > 10 µM | AC50 [7]: > 10 µM | AC50 [8]: > 10 µM

C=C(c1ccccc1OCc1cccc(Cl)c1)n1ccnc1 [CROCONAZOLE]
AC50 [9]: > 30 µM

CC(C)CN(C[C@@H](O)[C@H](Cc1ccccc1)NC(=O)O[C@H]1CCOC1)S(=O)(=O)c1ccc(N)cc1
AC50 [9]: > 10 µM

CC1Cc2ccccc2N1NC(=O)c1ccc(Cl)c(S(N)(=O)=O)c1 (stereo not drawn) [INDAPAMIDE]
AC50 [6]: > 10 µM | AC50 [7]: > 10 µM
